These results are taken from patent publication US6750240B2, “Methods of using bis-indolylquinones” (Sugen, Inc., priority 1997, dated 2004).

Assay [1] concerns human epidermoid carcinoma (A431, ATCC CRL 1555). Description: In vivo tumor growth of A431 cells implanted into the hindflank of athymic mice. Further details: species or system Female athymic mice (BALB/c, nu/nu). On the procedure:
The following example illustrates the use of the compounds of the invention in an in vivo model of tumor growth.
Female athymic mice (BALB/c, nu/nu) were obtained from Simonsen Laboratories (Gilroy, Calif.). All animals were maintained under clean-room conditions in Micro-isolator cages with Alpha-dri bedding. They received sterile rodent chow and water ad libitum. A cell line established from a human epidermoid carcinoma (A431, ATCC CRL 1555) was grown in DMEM with 10% FBS and 2 mM GLN. All cell culture media, glutamine, and fetal bovine serum were purchased from Gibco Life Technologies (Grand Island, N.Y.) unless otherwise specified. All cells were grown in a humid atmosphere of 90-95% air and 5-10% CO2 at 37° C. All cell lines were routinely subcultured twice a week and were negative for mycoplasma as determined by teh Mycotect method (Gibco). Cells were harvested at or near confluency with 0.05% Trypsin-EDTA and pelleted at 450×g for 10 min. Pellets were resuspended in sterile PBS or media (without FBS) to a particular concentration and the cells were implanted into the hindflank of the mice ([…] mice per group). Tumor growth was measured, over 3 to 6 weeks using venier calipers. Tumor volumes were calculated as a product of length×width×height unless otherwise indicated. P values were calculated using the Students' t-test. Compound 1 (from Example 1 and Table I) in 100 μL excipient (VPD:D5W, 1:1 (VPD−12% w/v polysorbate 80, 0.55% citric acid (anhydrous), 35% w/v polyenthlene glycol (MW=300 daltons) and 26.3% v/v 190 proof ethanol diluted 1:22 in 5% dextrose in water (D5W) was delivered by IP injection at different concentrations. Control animals received VPD:D5W alone. Animals were dosed daily on days 1-5 (high dose), days 1-9 (mid-dose) or throughout the study (low dose).
The results are shown below as a percent tumor reduction compared to controls.

Assay [2] concerns the target HIV-reverse transcriptase (Human immunodeficiency virus type 1 group M subtype B, UniProt P03366). The note with it: cited from earlier work.

On to `CC(C)CCc1[nH]c2ccccc2c1C1=C(O)C(=O)C(c2c(CCC(C)C)[nH]c3ccccc23)=C(O)C1=O` [Compound 1, 2,5-Dihydroxy-3,6-di-[2-(3-methyl-n-butyl)indol-3-yl]-1,4-quinone], for which the “% inhibition (percent tumor reduction compared to controls)” value worked out at 11% in assay [1] (2.5 mg/kg/day IP (low dose, dosed daily throughout the study), Day 7, A431 tumor); 0% in assay [1] (2.5 mg/kg/day IP (low dose, dosed daily throughout the study), Day 18, A431 tumor); 30% in assay [1] (5 mg/kg/day IP (mid-dose, days 1-9), Day 7, A431 tumor); 38% in assay [1] (5 mg/kg/day IP (mid-dose, days 1-9), Day 18, A431 tumor); 55% in assay [1] (7.5 mg/kg/day IP (high dose, days 1-5), Day 7, A431 tumor); 50% in assay [1] (7.5 mg/kg/day IP (high dose, days 1-5), Day 18, A431 tumor). In addition, in assay [1] (IP, 2.5-7.5 mg/kg/day, A431 tumor in athymic mice), the “tumor growth inhibition, dose dependence” value is given as “inhibited tumor growth in a dose dependent manner”. Besides, the “tumor growth after cessation of treatment” value in assay [1] (after cessation of treatment with the compound) is recorded as “remained inhibited even after cessation of treatment”.

For the compound `C=CC(C)(C)n1cc(C2=C(O)C(=O)C(c3cn(C(C)(C)C=C)c4ccccc34)=C(O)C2=O)c2ccccc21` [asterriquinone, 2,5-bis[N-(1″,1″-dimethyl-2″-propenyl)indol-3″-yl]-3,6-dihydroxy-1,4-benzoquinone], in assay [2], the “inhibition of HIV-reverse transcriptase” value is on record as “strong inhibitors”.
